In patent US9700596B2, “Locally released growth factors to mediate motor recovery after stroke” (The Regents of the University of California, priority 2011, dated 2017):
“Also recorded” adds a separate entry of the source.

Tests used:
[1] = test system: focal stroke in forelimb motor cortex; assay: Single-pellet skilled-reaching task after stroke; assay type: in vivo, mouse; conditions: CFM2 50 μmol/kg i.p. bid from 5 d after stroke
Protocol: For loss-of-function studies assessing CFM2, the single-pellet skilled-reaching task was used (Conner et al. (2005) Neuron 46: 173-179). Before stroke, animals were trained for […] to successfully reach and retrieve 20 mg sugar pellets (Bio-Serv). A three lane Plexiglas reaching apparatus (30 cm deep, 10 cm wide, and 30 cm high for each lane) was constructed to allow simultaneous recording of three animals. Each lane consists of two 5 mm slots situated against the front-right and front-left walls of the chamber to force the mouse the reach for the pellets using either their right or left forepaws. A 5-mm-thick plastic shelf was mounted 15 mm from the floor at the front of the box.
During the training period, mice were fasted to 90% of their body weight and maintained at this level for the full 3 week training period. […]
All mice were fasted the night before testing. Pellets were presented one at a time and reaches were recorded with a Canon VIXIA HV30 video recorder. […] If an animal reached through the slot and obtained/grasped a food pellet and brought the pellet back through the slot, the reach was scored as a success. If an animal knocked the pellet away or dropped the pellet after grasping it, the reach was scored as a miss. The performance of each mouse was scored as follows: percentage success[…](number of successful retrievals/15)*100.

[2] = CFM2 50 μmol/kg i.p. bid; cited from earlier work
[3] = test system: focal stroke in forelimb motor cortex; assay: Grid-walking task (footfaults) after photothrombotic focal stroke; assay type: in vivo, mouse; conditions: for number of forelimb footfaults / function of impaired forelimb, grid-walking: i.p. twice daily from 5 d after stroke for 6 weeks, CX1837 0.33 or 1 mg/kg, CX1739 3 or 30 mg/kg, CFM2 50 μmol/kg, vs stroke plus vehicle
Protocol: (§1) Focal stroke was induced by photothrombosis in adult male C57BL/6 mice weighing 20-25 g as previously described (Clarkson et al. (2010) Nature 468: 305-309).
(§2) CX1837 (0.33 and 1 mg/kg) and CX1739 (3 and 30 mg/kg) were dissolved in 30% hydroxypropyl_β-cyclodextran (HPCD) (made 1:1 in 0.9% saline and distilled H2O) and administered intraperitoneally twice daily starting 5 d after stroke for a period of 6 weeks. The AMPAR antagonist CFM2 ([…]) (De Sarro et al. (1999) Eur. J. Pharmacol., 368: 149-159) was administered intraperitoneally twice daily for 6 weeks.
A hyaluronan/heparin sulfate proteoglycan biopolymer hydrogel (Extracel-HP, a.k.a., HYSTEM®-HP; BioTime,) was used to locally deliver TrkB-Fc (5 μg/ml) and human IgG-Fc (antibody and vehicle control) to the periinfarct cortex (Li et al. (2010) Nat. Neurosci. 13: 1496-1504). This hydrogel was chosen because it is composed of naturally occurring brain extracellular matrix constituents; remains liquid for a period after mixing so that it can be injected into the brain through a small, minimally invasive needle; and will gel within the stroke cavity, conforming to the boundaries of this cavity. We have shown that this hydrogel releases small and large proteins for up to 4 weeks from the infarct cavity after stroke. Five days after stroke, 10 μl of Extracel-HP (HYSTEM®-HP), impregnated with TrkB-Fc (5 μg/ml) or human IgG-Fc (vehicle), was injected directly into the stroke infarct cavity using a 30 gauge needle attached to a Hamilton syringe. Extracel-HP was prepared according to the manufacturer's instructions. […]
(§3) Animals were tested once on both the grid-walking and cylinder tasks, 1 week before surgery to establish baseline performance levels. For the reaching task, mice were trained for a period of 14 d and subsequently tested on day 15 to establish a baseline reading. […] Behaviors were scored by observers who were blind to the treatment group of the animals in the study as previously described (Clarkson et al. (2010) Nature 468: 305-309). […]

[4] = test system: hilar EPSPs (dentate gyrus of the hippocampus)
Protocol: Male Long-Evans rats (250-350 g) were anesthetized by pentobarbital (60 mg/kg, i.p.) and maintained under anesthesia by pentobarbital infusion (2-4 mg·kg-^1·h^−1). Under anesthesia, animals were placed in a stereotaxic frame and small holes were drilled into the skull of the left hemisphere to allow the positioning of a stimulating electrode (−7.8 to −8.1 AP; 4.2 to 4.4 ML) and a recording electrode (−3.0 to −3.3 AP; 1.6 to 2.2 ML). A monopolar stainless-steel stimulating electrode (175 μm, insulated with Formvar) was lowered into the perforant path together with a platinum/iridium recording electrode (75 μm) into the hilus of the dentate gyms of the hippocampus. The current used to elicit an evoked potential was adjusted to produce a response size 50-60% of the maximal spike-free amplitude. Evoked hilar EPSPs were recorded in response to single-pulse stimulation delivered at a frequency of one pulse per 20 s.
Data acquisition and analysis was performed using commercially available software (NAC and NACSHOW).

BDNF = BDNF ELISA of cortical tissue 7 d after stroke; assay type: in vivo, mouse; conditions: treatment from day 5, CX1837 1 mg/kg, CX1739 3 mg/kg, vs stroke plus vehicle
Protocol: (§4) Tissue was collected from around the stroke site from stroke plus vehicle, stroke plus CX1837 (1 mg/kg), and stroke plus CX1739 (3 mg/kg), and control groups 7 d after stroke. Cortical tissue was dissected in a 1 mm radius around the stroke infarct core, including the core itself, and flash frozen on dry ice.
Equal volumes of tissue were homogenized in […] of homogenization buffer [Complete Protease Inhibitor Tablet (Invitrogen), 1 mM phenylmethylsulfonylfluoride, 50 mM Tris-HCl, 5 mM EDTA, 10 mM EGTA, 1% Triton X-100] for ˜1 min. Tissue and homogenization buffer were incubated on ice for 30 min, followed by a 5 min spin at 14,000 rpm. The supernatant was collected and total protein concentrations were determined using the DC Protein Assay (Bio-Rad). BDNF was measured using the BDNF ELISA Emax Immunoassay System (Promega) as per the manufacturer's instructions. BDNF levels were determined relative to a standard curve constructed from measures of kit-supplied BDNF protein standards (0-500 pg of BDNF protein) that were assayed simultaneously with the experimental samples. BDNF levels are expressed as picograms of BDNF per 100 μg of sample protein.

[5] = test system: focal stroke in forelimb motor cortex; assay: Spontaneous-forelimb (cylinder) task after photothrombotic focal stroke; assay type: in vivo, mouse; conditions: i.p. twice daily from 5 d after stroke for 6 weeks; CX1837 0.33 or 1 mg/kg, CX1739 3 or 30 mg/kg; vs stroke plus vehicle
Protocol: as §1, §2
A hyaluronan/heparin sulfate proteoglycan biopolymer hydrogel (Extracel-HP, a.k.a., HYSTEM®-HP; BioTime,) was used to locally deliver TrkB-Fc (5 μg/ml) and human IgG-Fc (antibody and vehicle control) to the periinfarct cortex (Li et al. (2010) Nat. Neurosci. 13: 1496-1504). […]
as §3

TrkB = assay: TrkB/p-Trk immunoblotting of cortical tissue 7 d after stroke; assay type: in vivo, mouse; conditions: CX1837 1 mg/kg, CX1739 3 mg/kg, vs stroke plus vehicle
Protocol: as §4
For immunoblotting experiments, protein (10 μg) was loaded onto a 12% SDS-polyacrylamide gel, subjected to electrophoresis, and transferred to a pure nitrocellulose membrane (GE Healthcare). The membrane was blocked in 10% nonfat milk and probed with polyclonal antibodies specific for anti-TrkB (1:1000; Santa Cruz Biotechnology) and anti-p-Trk (1:5000; Santa Cruz Biotechnology). The blots were incubated with peroxidase-labeled anti-rabbit IgG (1:2000; Vector Laboratories) and immunoreactive proteins were visualized using enhanced chemiluminescence (GE Healthcare). β-Actin was used as a loading control (1:5000; Abcam). Optical density (OD) was determined using the NIH ImageJ software. Pixel intensities were converted to OD using the calibration curve of the software, and background-subtracted values were expressed as OD/[…] total protein.

Row | crossing of the blood-brain barrier when given systemically ([4]; rat, in vivo, ip) | Molecule | successful pellet retrieval with impaired right forelimb [1] | general behavioral side effects (reduced motor activity, impaired grooming, weight loss) [2] | number of forelimb footfaults / function of impaired forelimb, grid-walking [3] | excitability ceiling of the EPSP amplitude effect (dose) ([4]; i.p., anesthetized rats) [mg/kg] | BDNF levels in periinfarct cortex (BDNF) | forelimb asymmetry (left/right ratio), cylinder task [5] | TrkB phosphorylation in periinfarct cortex (TrkB) | forelimb footfaults / functional recovery with hydrogel-delivered BDNF ([3]; injected 7 days after stroke, 4 weeks after injection, 5 weeks after stroke)
1 |  | COc1cc2c(cc1OC)C(c1ccc(N)cc1)=NNC(=O)C2 [CFM2] | significant impairment in the ability to retrieve pellets successfully out to 2 weeks after stroke; also recorded: decrease in the number of pellets successfully retrieved | did not produce general behavioral side effects | significant impairment in the normal gain of motor function; also recorded: significant increase in the number of footfaults |  |  |  |  | 
2 | cross the blood-brain barrier | CN(C(=O)c1ccc2nonc2c1)C1CCOCC1 [CX1739] |  |  | small decrease in the number of footfaults; also recorded: small yet non-significant decrease in the number of footfaults | 10 | did not change the level of BDNF expression | small increase in the use of the right-impaired forelimb; also recorded: did not result in a decrease in the left/ratio | did not change the level of TrkB phosphorylation | 
3 |  | brain derived neurotrophic factor (protein, growth factor, delivered through HYSTEM-C from 7 days after stroke) HSDPARRGELSVCDSISEWVTAADKKTAVDMSGGTVTVLEKVPVSKGQLKQYFYETKCNPMGYTKEGCRGIDKRHWNSQCRTTQSYVRALTMDSKKRIGWRFIRIDTSCVCTLTIKRGR |  |  |  |  |  |  |  | significant improvements in functional recovery
